The results in this text go back to ChEMBL document CHEMBL5465560, “Selectivity Literature for EUbOPEN Chemogenomic Library” (2024).

The target of assay [1] is Serine/threonine-protein kinase 38 (Homo sapiens) (UniProt Q15208). In words: Selectivity interaction (Kinase panel (KiNativ target engagement assay in Jurkat cells)) EUB0001635a STK38. Type of assay: cell-based. The following applies: Selectivity number of off-targets 0.0, Selectivity number of targets 233.0, Source Knowledge https://www.sciencedirect.com/science/article/pii/S2451945619300674?via%3Dihub, at 1 µM.

Assay [2] deals with T1, Aurora kinase A (Homo sapiens) (UniProt O14965).
T1 sequence (whole entry): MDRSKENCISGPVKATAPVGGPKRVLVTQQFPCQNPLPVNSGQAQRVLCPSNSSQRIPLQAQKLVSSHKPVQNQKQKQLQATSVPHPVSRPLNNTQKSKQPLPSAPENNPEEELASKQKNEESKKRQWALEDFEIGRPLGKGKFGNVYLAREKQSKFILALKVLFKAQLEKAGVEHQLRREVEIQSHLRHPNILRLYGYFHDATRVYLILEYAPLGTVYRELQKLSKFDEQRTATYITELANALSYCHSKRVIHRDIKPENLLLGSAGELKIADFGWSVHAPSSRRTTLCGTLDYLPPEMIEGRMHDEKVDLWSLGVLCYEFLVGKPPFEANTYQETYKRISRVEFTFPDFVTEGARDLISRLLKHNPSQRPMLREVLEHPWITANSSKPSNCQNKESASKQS
Put plainly: Selectivity interaction (SelectScreen profiling (Invitrogen)) EUB0000607a STK6. The following applies: at 2 µM.

Assay [3] concerns the target Wee1-like protein kinase (Homo sapiens) (UniProt P30291). In words: Selectivity interaction (KinomeScan (DiscoverX)) EUB0000666a WEE1. The following applies: at 10 µM.
Assay [4] deals with T2, Serine/threonine-protein kinase Nek1 (Homo sapiens) (UniProt Q96PY6).
T2 sequence (whole entry): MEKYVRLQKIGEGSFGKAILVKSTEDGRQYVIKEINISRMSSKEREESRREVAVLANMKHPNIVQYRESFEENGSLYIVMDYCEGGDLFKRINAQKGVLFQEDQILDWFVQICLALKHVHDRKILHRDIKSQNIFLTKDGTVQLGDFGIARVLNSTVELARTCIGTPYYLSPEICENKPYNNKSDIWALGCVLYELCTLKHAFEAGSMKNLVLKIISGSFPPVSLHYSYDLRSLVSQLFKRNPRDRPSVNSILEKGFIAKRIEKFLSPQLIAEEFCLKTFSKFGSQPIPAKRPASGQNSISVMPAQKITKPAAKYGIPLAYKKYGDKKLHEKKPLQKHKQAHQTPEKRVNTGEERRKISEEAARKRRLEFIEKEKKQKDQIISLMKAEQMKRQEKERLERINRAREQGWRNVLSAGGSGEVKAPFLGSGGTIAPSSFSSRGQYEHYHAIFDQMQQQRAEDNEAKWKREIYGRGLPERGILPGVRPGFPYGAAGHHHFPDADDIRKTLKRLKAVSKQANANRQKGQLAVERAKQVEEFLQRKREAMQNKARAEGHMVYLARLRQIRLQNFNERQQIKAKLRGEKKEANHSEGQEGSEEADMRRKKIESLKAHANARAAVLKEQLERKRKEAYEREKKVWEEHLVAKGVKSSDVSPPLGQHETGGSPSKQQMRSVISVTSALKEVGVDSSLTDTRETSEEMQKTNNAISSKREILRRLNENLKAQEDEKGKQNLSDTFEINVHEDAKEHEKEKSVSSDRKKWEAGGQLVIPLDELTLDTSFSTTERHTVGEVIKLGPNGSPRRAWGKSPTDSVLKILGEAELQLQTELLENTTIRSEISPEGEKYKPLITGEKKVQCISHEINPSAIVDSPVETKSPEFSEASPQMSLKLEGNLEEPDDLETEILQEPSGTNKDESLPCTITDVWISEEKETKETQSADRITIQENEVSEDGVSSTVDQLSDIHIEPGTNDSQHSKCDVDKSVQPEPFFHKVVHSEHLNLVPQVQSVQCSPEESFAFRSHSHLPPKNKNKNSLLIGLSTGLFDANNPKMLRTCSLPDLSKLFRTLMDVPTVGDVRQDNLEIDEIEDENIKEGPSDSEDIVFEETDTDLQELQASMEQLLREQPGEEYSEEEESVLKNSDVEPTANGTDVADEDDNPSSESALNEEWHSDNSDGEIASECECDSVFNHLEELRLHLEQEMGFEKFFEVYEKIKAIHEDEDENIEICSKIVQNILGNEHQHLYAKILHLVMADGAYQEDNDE
In words: Selectivity interaction (KinomeScan (DiscoverX)) EUB0000229b NEK1. The following applies: at 10 µM.

Assay [5] addresses ALK tyrosine kinase receptor (Homo sapiens, UniProt Q9UM73). Put plainly: Selectivity interaction (KinomeScan (DiscoverX)) EUB0001619a ALK. Conditions: at 1 µM.
Assay [6] deals with Epidermal growth factor receptor (Homo sapiens), P00533 [UNDEFINED MUTATION]. In words: Selectivity interaction (KinomeScan (DiscoverX)) EUB0000618a EGFR. Conditions: at 10 µM.

The structures appear in SMILES notation.

Sequence of Wee1-like protein kinase (Homo sapiens) (P30291 whole entry, looked up): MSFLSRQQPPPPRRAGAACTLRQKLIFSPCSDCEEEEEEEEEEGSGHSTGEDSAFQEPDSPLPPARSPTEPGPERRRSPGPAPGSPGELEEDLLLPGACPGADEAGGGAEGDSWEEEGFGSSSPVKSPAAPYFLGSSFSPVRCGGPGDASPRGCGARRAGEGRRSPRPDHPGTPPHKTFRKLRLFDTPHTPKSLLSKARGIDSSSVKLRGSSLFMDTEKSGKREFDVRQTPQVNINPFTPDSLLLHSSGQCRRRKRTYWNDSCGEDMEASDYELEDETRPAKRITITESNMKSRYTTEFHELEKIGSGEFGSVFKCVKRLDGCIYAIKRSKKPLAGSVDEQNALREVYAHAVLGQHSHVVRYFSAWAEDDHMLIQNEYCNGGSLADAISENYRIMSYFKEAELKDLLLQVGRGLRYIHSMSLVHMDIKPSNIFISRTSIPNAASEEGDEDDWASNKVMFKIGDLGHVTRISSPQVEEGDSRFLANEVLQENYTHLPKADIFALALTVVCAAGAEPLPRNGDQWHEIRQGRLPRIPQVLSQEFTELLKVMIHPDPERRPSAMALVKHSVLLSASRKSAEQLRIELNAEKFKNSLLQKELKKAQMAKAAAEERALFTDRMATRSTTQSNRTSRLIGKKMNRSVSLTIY
Sequence of ALK tyrosine kinase receptor (Q9UM73 19-1620 limits assumed): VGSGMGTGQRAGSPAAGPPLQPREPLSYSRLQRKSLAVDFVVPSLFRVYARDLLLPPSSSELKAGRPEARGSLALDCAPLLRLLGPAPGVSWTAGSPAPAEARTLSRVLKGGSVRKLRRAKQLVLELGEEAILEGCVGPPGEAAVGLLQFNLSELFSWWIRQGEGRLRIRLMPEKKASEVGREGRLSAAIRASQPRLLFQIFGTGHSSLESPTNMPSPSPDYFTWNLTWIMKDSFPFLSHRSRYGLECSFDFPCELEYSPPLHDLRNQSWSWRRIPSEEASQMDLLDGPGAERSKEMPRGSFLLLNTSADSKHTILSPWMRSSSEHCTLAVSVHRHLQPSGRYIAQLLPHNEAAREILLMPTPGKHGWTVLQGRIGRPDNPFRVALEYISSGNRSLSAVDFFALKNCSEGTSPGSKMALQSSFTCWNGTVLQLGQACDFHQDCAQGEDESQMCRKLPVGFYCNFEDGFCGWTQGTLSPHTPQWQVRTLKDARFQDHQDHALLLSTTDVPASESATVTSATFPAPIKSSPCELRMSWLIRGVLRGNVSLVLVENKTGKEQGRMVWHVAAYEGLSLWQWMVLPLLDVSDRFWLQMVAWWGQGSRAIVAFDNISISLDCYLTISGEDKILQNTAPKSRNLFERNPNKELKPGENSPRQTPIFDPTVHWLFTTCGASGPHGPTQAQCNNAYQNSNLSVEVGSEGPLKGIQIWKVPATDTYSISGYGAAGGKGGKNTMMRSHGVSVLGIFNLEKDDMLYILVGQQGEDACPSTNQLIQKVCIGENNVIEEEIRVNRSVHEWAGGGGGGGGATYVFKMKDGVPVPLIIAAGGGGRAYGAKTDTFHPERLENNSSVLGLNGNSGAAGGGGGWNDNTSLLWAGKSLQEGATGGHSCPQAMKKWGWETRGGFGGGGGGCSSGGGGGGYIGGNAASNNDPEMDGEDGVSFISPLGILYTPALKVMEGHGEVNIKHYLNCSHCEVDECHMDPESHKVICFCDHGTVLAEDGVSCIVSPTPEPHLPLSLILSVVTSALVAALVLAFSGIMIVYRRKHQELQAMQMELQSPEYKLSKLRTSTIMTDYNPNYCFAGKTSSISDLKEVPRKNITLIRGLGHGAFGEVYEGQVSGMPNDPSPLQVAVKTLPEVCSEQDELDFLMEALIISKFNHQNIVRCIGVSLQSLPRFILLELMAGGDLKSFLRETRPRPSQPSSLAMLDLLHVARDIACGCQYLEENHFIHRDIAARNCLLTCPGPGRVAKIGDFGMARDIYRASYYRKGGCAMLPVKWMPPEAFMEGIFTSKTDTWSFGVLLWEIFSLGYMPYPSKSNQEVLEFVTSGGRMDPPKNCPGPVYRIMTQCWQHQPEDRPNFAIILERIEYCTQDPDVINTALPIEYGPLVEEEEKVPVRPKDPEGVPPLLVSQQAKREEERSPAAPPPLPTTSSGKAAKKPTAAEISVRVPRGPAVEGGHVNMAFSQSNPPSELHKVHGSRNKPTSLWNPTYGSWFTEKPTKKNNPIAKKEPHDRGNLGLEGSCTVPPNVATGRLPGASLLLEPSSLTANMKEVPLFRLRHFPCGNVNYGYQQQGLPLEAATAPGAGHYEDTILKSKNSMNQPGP
Sequence of Epidermal growth factor receptor (Homo sapiens), P00533 [UNDEFINED MUTATION] (P00533 whole entry, looked up, change not shown): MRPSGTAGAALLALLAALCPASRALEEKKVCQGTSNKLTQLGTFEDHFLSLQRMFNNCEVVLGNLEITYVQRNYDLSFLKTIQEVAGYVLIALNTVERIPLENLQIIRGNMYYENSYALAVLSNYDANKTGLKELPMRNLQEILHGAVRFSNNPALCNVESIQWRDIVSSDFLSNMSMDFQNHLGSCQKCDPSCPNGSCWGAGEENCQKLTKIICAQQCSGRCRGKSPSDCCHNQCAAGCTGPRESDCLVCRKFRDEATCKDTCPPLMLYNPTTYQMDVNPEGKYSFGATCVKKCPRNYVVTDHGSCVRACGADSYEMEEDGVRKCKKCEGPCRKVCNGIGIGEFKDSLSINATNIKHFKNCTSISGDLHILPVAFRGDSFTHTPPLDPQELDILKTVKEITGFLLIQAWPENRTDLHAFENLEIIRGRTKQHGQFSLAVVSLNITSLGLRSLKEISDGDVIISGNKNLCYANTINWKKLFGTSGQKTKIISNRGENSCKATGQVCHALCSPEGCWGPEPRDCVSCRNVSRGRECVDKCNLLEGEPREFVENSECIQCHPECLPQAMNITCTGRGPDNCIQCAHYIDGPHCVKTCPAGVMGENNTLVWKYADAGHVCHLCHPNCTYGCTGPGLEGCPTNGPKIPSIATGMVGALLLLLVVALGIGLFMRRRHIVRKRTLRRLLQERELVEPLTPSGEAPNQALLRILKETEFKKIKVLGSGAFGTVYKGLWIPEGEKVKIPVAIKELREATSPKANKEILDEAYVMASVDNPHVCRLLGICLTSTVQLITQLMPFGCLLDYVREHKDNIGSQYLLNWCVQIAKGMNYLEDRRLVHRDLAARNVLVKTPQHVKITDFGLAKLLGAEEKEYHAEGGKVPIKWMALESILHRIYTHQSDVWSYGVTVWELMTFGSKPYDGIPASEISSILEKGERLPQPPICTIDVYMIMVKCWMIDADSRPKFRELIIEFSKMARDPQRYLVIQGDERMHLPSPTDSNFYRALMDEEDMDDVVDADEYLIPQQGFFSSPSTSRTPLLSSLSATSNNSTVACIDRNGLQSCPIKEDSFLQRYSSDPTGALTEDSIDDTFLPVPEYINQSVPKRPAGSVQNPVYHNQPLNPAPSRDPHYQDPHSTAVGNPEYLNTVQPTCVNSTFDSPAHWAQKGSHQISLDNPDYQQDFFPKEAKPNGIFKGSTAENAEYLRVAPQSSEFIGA
Sequence of Serine/threonine-protein kinase 38 (Homo sapiens) (Q15208 2-465 limits assumed): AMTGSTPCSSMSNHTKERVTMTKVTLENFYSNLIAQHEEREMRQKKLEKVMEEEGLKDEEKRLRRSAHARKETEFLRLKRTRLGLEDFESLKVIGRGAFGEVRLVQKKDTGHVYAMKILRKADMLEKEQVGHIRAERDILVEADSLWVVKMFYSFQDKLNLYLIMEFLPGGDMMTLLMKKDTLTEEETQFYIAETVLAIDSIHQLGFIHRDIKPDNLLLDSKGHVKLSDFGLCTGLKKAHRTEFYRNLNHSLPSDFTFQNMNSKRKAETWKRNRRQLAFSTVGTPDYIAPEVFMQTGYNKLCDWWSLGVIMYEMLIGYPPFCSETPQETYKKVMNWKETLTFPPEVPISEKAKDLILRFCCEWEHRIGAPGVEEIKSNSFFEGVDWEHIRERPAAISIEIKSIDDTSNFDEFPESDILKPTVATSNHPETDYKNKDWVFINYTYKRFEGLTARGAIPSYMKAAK

`C=CC(=O)Nc1ccc(C(=O)Nc2[nH]nc3c2CN(C(=O)N[C@H](CN(C)C)c2ccccc2)C3(C)C)cc1`: the % of engagement in assay [1] was 0.3%.
For `CNC(=O)Nc1ccc(-c2nc(N3CC4CCC(C3)O4)c3cnn(C4CCC5(CC4)OCCO5)c3n2)cc1`, the % of inhibition in assay [2] stood at 0%.
Molecule `O=C(NOC[C@H](O)CO)c1ccc(F)c(F)c1Nc1ccc(I)cc1F` came in with a % of control in assay [3] of 67%.
In assay [4], `COc1cc(N(C)c2ccnc3ccc(C(F)(F)F)cc23)cc(OC)c1OC` registered a % binding of 78%.
Regarding `N#Cc1cccc(-c2c[nH]c3ncnc(N4CCOCC4)c23)c1`, in assay [5], the % of control is 100%.
In assay [6], `O[C@H]1CC[C@H](Nc2ncc3nc(Nc4c(F)cc(F)cc4F)n([C@H]4CCOC4)c3n2)CC1` came in with a % of control of 5.7%.
